Data as given in PMC11513920, “Building Metabolically Stable and Potent Anti-HIV Thioether-Lipid Analogues of Tenofovir Exalidex: A thorough Pharmacological Analysis” (Journal of Medicinal Chemistry, 2024).

What was measured:
[1] = Human liver microsome stability; conditions: for half-life at 3 μM / half-life at 2.083 h, 3 µM / remaining at 2 h, 3 μM: human; for remaining at 2 h, 3 μM: HLM % remaining; for remaining at 2 h, 3 μM / HLM % remaining: relative percent remaining of prodrug at 120 min
Protocol: Human liver microsomes (HLMs, 20 mg/mL) and CD-1 mouse liver microsomes (MLMs, 20 mg/mL) were purchased from Xenotech. NADPH was purchased from Sigma-Aldrich and prepared in 10 mM stock solutions of distilled H2O (Invitrogen UltraPure). […] Test compounds and positive controls were initially dissolved in MeOH to make 10 mM stock solutions. Sample solutions were then further diluted in 70/30 MeOH/H2O to 500 μM. Next, the reactions were prepared by mixing human or mouse liver microsomes (55 μL) with potassium phosphate buffer (100 mM, 928 μL) in 1.5 mL Eppendorf tubes. The test compounds (6.6 μL of 500 μM solution) were subsequently added to the suspensions, and the reaction mixtures were incubated at 37 °C for 5 min. Afterward, the liver microsome reactions were initiated with 110 μL of 10 mM NADPH and further incubated at 37 °C for the designated time course of the study. […] Each test compound was run in tandem with positive and negative control experiments for quality assurance. Positive control reactions were conducted at a final volume of 550 μL for a single run of each time point.
For both LM and plasma stability assays, each data point was analyzed in duplicate using in-between blank washes to avoid carry over and to equilibrate the column for the subsequent runs. Averages of these duplicate for individual compounds at each time point were then normalized to the data at 0 min, representing 100% test compound remaining or 0% metabolism. Half-lives (t1/2) were calculated by plotting ln of % test compound remaining versus time and performing linear regression to determine slope.
Metabolic Stability Assays
Liver Microsome Stability
Liver Microsome Stability Assay Setup Example
Quenching Mixture: 100 µL MeOH with ISTD (2 µM d5-7-ethoxycoumarin).
Final Volume After Quenching: 200 µL (100 µL from reaction mixture + 100 µL quencher
solution; ISTD final concentration of 1.0 µM).

HEK293T cells = assay: Cellular cytotoxicity (cell viability, CellTiter 96 or resazurin); conditions: HEK293T cells, 48 h, compounds formulated with HSA (5:1)
[2] = as above; conditions: human, CC50, HEK293T cells, compounds formulated with HSA (5:1)
[3] = Solubility in antiviral/cytotoxicity assay medium; type: physicochemical; conditions: despite formulation with HSA
Excerpt: Nevertheless, due to the promising metabolic profile of 2i and 2j, our lab is continuing to analyze TXL analogs with chain lengths beyond 20 atoms and will disclose a report in the future. However, for the sake of this study, 2a remained as the most pharmacologically attractive starting point for ω-functionalization.

[4] = test system: HIV-1 subtype C strain MJ4; assay: Single-cycle non-replicating HIV pseudoviral luciferase assay in HEK293T cells; conditions: Human immunodeficiency virus 1, HEK-293T, read-out: HIV IC50
Protocol: Second, HIV IC50 and cellular CC50 were determined with a pseudoviral, whole (HEK293T) cell, nonreplicative HIV assay, using the HIV-1 subtype C strain MJ4 (refer to Experimental Methods). To account for the unique amphiphilic properties of TXL and the novel HTP-based prodrugs, all compounds were formulated in a human serum albumin (HSA) solution (5:1 drug:protein).
Assessment of cytotoxicity and antiviral activity of all final compounds in vitro was conducted according to previously reported procedures.[39] In summary, human embryonic kidney (HEK293T) cells maintained in high glucose (25 mM), Dulbecco’s modified Eagle’s medium (DMEM) supplemented with fetal bovine serum (10%), sodium pyruvate (1 mM), L-glutamine (2 mM), HEPES (25 mM), and gentamicin (50 μg/mL) were used for determinations. The cells were maintained in an incubator at 37 °C under 5% CO2 in a humidified atmosphere. For both cytotoxicity and antiviral screening, all compounds were evaluated in duplicate in at least two independent experiments. All final compounds were formulated with human serum albumin (HSA, 5:1 compound to HSA molar ratio) and subsequently diluted with complete DMEM to 200 μM. Fifty microliters of test compound serial dilutions (3-fold) were prepared in 96-well culture plates, after which 50 μL of HEK293T cells (2 × 10^4 cells/well) was added. […] Cytotoxicity was then assessed by quantifying cell viability using the CellTiter 96 Aqueous One Solution Cell Proliferation Assay (Promega, Madison, WI) or resazurin sodium salt (cat# R7017, Merck, Darmstadt, Germany).[61] […] Antiviral activity was then assessed using a single-cycle, nonreplicating, envelope deleted HIV pseudoviral in vitro assay.[62],[63] The assay relies on the introduction of the firefly luciferase gene into HEK293T cells through infection with HIV-like viral particles, containing Reverse Transcriptase (RT) and Integrase (IN) from the HIV-1 subtype C strain MJ4.[64] The expression of the luciferase in the cells is directly proportional to the level of infection by the HIV-like viral particles and can be used to assess the inhibition of HIV-1 RT and IN. To evaluate anti-HIV activity, 3-fold serial dilutions of all final compounds were prepared in 50 μL over the noncytotoxic concentration range (as determined from the cytotoxicity screens described above) in 96-well culture plates. HEK293T cells (2 × 10^4 cells/well) and HIV-like viral particles, standardized to produce a luminescence signal of 1 × 10^6 relative light units (RLUs) in the growth medium only control, were combined, and 50 μL was added to the wells containing serially diluted test compounds. […] The expression of luciferase was subsequently quantified by adding 100 μL of the Bright-Glo Luciferase Assay substrate (Promega, Madison, WI) to each well of the 96-well plates. After incubation at rt for 3 min, luminescence was quantified on the GloMax Explorer Multimode Microplate Reader (Promega, Madison, WI).

[5] = microsomes, HLM t1/2, HLM 1 mg/mL, 3 μM compound, NADPH, 37 °C, 120 min course

| Compound | half-life at 3 μM [1, 5] | half-life at 2.083 h, 3 µM [1, 5] | CC50 at 48 h [2] | remaining at 2 h, 3 μM ([1]; microsomes) | other results |
| --- | --- | --- | --- | --- | --- |
| CCCCCCCCCCCCCCCCCSCCOP(=O)(O)CO[C@H](C)Cn1cnc2c(N)ncnc21.N [2b] | 1.1 h | 1.1 ± 0.0433 h | 29 µM | – | CC50 (HEK293T cells): 28.6 ± 3.7 µM |
| CCCCCCCCCCCCCSCCCCCCOP(=O)(O)CO[C@H](C)Cn1cnc2c(N)ncnc21.N [2c] | 1.1 h | 1.1 ± 0.05 h | > 100 µM | – | – |
| CCCCCCCCCCSCCCCCCCCCOP(=O)(O)CO[C@H](C)Cn1cnc2c(N)ncnc21.N [2d] | – | 0.222 ± 0.00833 h | > 100 µM | – | – |
| CCCCCCCSCCCCCCCCCCCCOP(=O)(O)CO[C@H](C)Cn1cnc2c(N)ncnc21.N [2e] | – | 0.3433 ± 0.00167 h | > 100 µM | – | – |
| CCCCSCCCCCCCCCCCCCCCOP(=O)(O)CO[C@H](C)Cn1cnc2c(N)ncnc21.N [2f] | – | 0.32833 ± 5e-05 h | > 100 µM | – | – |
| CCCCCCCCCCCCSCCCOP(=O)(O)CO[C@H](C)Cn1cnc2c(N)ncnc21.N [2g] | – | 0.188 ± 0.00333 h | > 100 µM | – | – |
| CCCCCCCCCCCCCCSCCCOP(=O)(O)CO[C@H](C)Cn1cnc2c(N)ncnc21.N [2h] | – | 0.26 ± 0.00167 h | > 100 µM | – | – |
| CCCCCCCCCCCCCCCCCCSCCCOP(=O)(O)CO[C@H](C)Cn1cnc2c(N)ncnc21.N [2i] | > 2 h | – | – | 95% | solubility in the assay medium [3]: poor solubility; HLM % remaining [1]: > 95% |
| CCCCCCCCCCCCCCCCCCCCSCCCOP(=O)(O)CO[C@H](C)Cn1cnc2c(N)ncnc21.N [2j] | > 2 h | – | – | 95% | solubility in the assay medium [3]: poor solubility; HLM % remaining [1]: > 95% |
| C#CCCCCCCCCCCCCCCSCCCOP(=O)(O)CO[C@H](C)Cn1cnc2c(N)ncnc21 [15b] | – | – | – | – | IC50 [4]: 0.024 to 0.028 µM; half-life at 3 μM ([1]; liver microsomes): > 1.58 h; half-life at 2.083 h, 3 µM ([1]; liver microsomes): 1.6 ± 0.03 h |
| C[C@H](Cn1cnc2c(N)ncnc21)OCP(=O)(O)OCCCSCCCCCCCCCCCCC#C[Si](C)(C)C.N [15c] | > 1.58 h | – | > 100 µM | 82% | IC50 [4]: 0.024 to 0.028 µM; HLM t1/2 ([1]; HLM 1 mg/mL, 3 μM compound, NADPH, 37 °C, 120 min course): > 2 h |
| CC(C)[Si](C#CCCCCCCCCCCCSCCCOP(=O)(O)CO[C@H](C)Cn1cnc2c(N)ncnc21)(C(C)C)C(C)C.N [15d] | > 2 h | – | 59.3 ± 2.4 µM | > 95% | – |
